Test results reported in the NIST ThermoML archive (doi:10.1016/j.jct.2014.09.005).
± gives the expanded uncertainty stated by the source.

Tests used:
[1] = 101.33 kPa, Liquid; for viscosity: Capillary tube (Ostwald / Ubbelohde) method; for mass density: Vibrating tube method
[2] = refractive index (Na D-line) (dimensionless); conditions: 101.33 kPa, Liquid, Standard Abbe refractometry

SMILES | viscosity ([1]; 293.15 K) | mass density ([1]; 293.15 K) | viscosity ([1]; 298.15 K) | mass density ([1]; 298.15 K) | viscosity ([1]; 303.15 K) | mass density ([1]; 303.15 K) | refractive index ([2]; 293.15 K) | refractive index ([2]; 298.15 K) | refractive index ([2]; 303.15 K)
NC1CCCCC1 [cyclohexylamine] | 2.142 ± 0.046 mPa·s | 867.2 ± 0.24 kg/m3 | 1.909 ± 0.041 mPa·s | 862.69 ± 0.24 kg/m3 | 1.699 ± 0.036 mPa·s | 858.12 ± 0.24 kg/m3 | 1.45936 ± 0.00037 | 1.45694 ± 0.00037 | 1.45427 ± 0.00037
CCCCCCCCCCO [decan-1-ol] | 14.52 ± 0.3 mPa·s | 829.97 ± 0.24 kg/m3 | 11.82 ± 0.25 mPa·s | 826.58 ± 0.24 kg/m3 | 9.738 ± 0.2 mPa·s | 823.13 ± 0.24 kg/m3 | 1.43728 ± 0.00037 | 1.43531 ± 0.00037 | 1.43345 ± 0.00037
CCCCCCCO [heptan-1-ol] | 7.106 ± 0.15 mPa·s | 822.52 ± 0.24 kg/m3 | 5.966 ± 0.13 mPa·s | 818.99 ± 0.24 kg/m3 | 4.841 ± 0.1 mPa·s | 815.4 ± 0.24 kg/m3 | 1.42429 ± 0.00037 | 1.42227 ± 0.00037 | 1.42023 ± 0.00037
